Patent US20240226318A1, “ANTIBODY DRUG CONJUGATE TARGETING NECTIN 4 AND PREPARATION METHOD THEREFOR AND USE THEREOF” (JIANGSU MABWELL HEALTH PHARMACEUTICAL R&D CO., LTD., priority 2021, published 2024)

Tests used:
[1] = molecular target: Nectin-4 on stably transfected PC-3-Nectin4(2-4) cells (UniProt Q96NY8); experiment: cell-based or functional assay
FcRn [2] = molecular target: T1, FcRn (Homo sapiens, UniProt P55899); experiment: BIAcore (SPR), FcRn captured on His capture chip, pH 6.0, ADC injected
human FcγR I (CD64) [3] = molecular target: T2, human FcγR I (CD64) (Homo sapiens, UniProt P12314); experiment: BIAcore (SPR), Fc receptor captured on His capture chip, pH 7.4, ADC injected
[4] = molecular target: human FcγR IIa (human CD32a (H167)) (human) (UniProt P12318); experiment: as above
[5] = molecular target: human FcγR IIb (human CD32b) (human) (UniProt P31994); experiment: as above
[6] = molecular target: Nectin-4 on stably transfected PC-3-Nectin4(2-4) cells (UniProt Q96NY8); experiment: flow cytometry on PC-3-Nectin4(2-4) cells, 2 h at 4° C., anti-human IgG Fc-FITC
[7] = molecular target: recombinant extra-cellular domain of human Nectin-4 protein (human) (UniProt Q96NY8); experiment: BIAcore (SPR), ADC captured on chip, human Nectin-4 protein injected at 0.391-50 nM
MDA-MB-468 cells = experiment: In vivo efficacy, breast cancer animal model MDA-MB-468 (Group 4 Example 1); parameters: species or system Nude mice (BALB/cJGpt-Foxn1nu/Gpt); conditions: MDA-MB-468 model; for TV(D0): D0 baseline; for PR (D21), partial tumor regression: 8 animals per group
Text: (§1) MIDA-MB-468 cells, i.e. human breast carcinoma cells (purchased from ATCC), NCI-H322 cells, i.e. lung cancer cells (purchased from ATCC), and T24/nectin-4, i.e. bladder cancer cells (available from the cell bank of the Chinese Academy of Science) were utilized respectively to inoculate Nude mice (BALB/cJGpt-Foxn1nu/Gpt, 4-5 weeks old) for establishing mouse models.
(§2) The antibody-drug conjugate 3d and the control drug PADCVE (Enfortumab Vedotin, purchased from Seattle Gentics) were grouped and studied (as shown in Table 9 below). The mice were intravenously injected (IV) in a volume of 10 mL/kg, respectively; and the mice of the vehicle group were intravenously injected the same volume of vehicle (physiological saline). Tumor volumes were measured 2 times per week, and the mice were weighed and the data was recorded.
(§3) When the experiment was finished, the experimental endpoint was reached, or if the tumor volume reached 1500 mm^3, the animals were sacrificed under CO2 anesthesia and the tumors were dissected and photographed.
(§4) The method for evaluating in vivo efficacy was the same as described in Section 3.3 in the Group 3 of Examples.
A mouse model was established using MDA-MB-468 cells and ADCs 3d and PADCVE were grouped and studied, as described in sections 4.1 and 4.2 in the present Group 4 of Examples.

NCI-H322 cells = experiment: In vivo efficacy, lung cancer animal model NCI-H322; parameters: species or system Nude mice (BALB/cJGpt-Foxn1nu/Gpt)
Text: as §1, §2, §3, §4
A mouse model was established using NCI-H322 cells and ADCs 3d and PADCVE were grouped and studied, as described in sections 4.1 and 4.2 in the present Group 4 of Examples.

T24/nectin-4 cells = experiment: In vivo efficacy, bladder cancer animal model T24/nectin-4; parameters: species or system Nude mice (BALB/cJGpt-Foxn1nu/Gpt); conditions: T24/nectin-4 model; for Average weight (g) at the beginning / Average weight (g) at the end: mouse body weight
Text: as §1, §2, §3, §4
A mouse model was established using T24/nectin-4 cells and ADCs 3d and PADCVE were grouped and studied, as described in sections 4.1 and 4.2 in the present Group 4 of Examples.

[8] = molecular target: T3, recombinant extra-cellular domain of human Nectin-4 protein (Homo sapiens, UniProt Q96NY8); experiment: BIAcore affinity for the antigen; assay type: binding; conditions: human Nectin-4, pH 7.4
T3 construct: recombinant extra-cellular domain of human Nectin-4 protein; purchased Novoprotein Scientific Inc
T3 sequence (Q96NY8 32-349 limits assumed): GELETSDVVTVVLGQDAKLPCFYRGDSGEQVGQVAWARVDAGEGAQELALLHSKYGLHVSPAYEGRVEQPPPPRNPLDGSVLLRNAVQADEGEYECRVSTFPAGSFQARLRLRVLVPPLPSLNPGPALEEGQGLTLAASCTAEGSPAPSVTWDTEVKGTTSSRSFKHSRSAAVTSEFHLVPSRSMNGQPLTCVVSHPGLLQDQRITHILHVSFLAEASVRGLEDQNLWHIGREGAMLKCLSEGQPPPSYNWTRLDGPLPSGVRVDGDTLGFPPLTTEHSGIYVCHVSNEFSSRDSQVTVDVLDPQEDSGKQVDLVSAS
Description: Human Nectin-4 protein (purchased from Novoprotein Scientific Inc.) was subjected to buffer exchange with a desalting column using running reagent 1 (10 mM N-(2-hydroxyethyl)piperazine-N-2 sulfonic acid, 150 mM sodium chloride, 3 mM ethylene diamine tetraacetic acid, 0.005% Tween-20, with pH adjusted to 7.4). Samples to be detected were diluted to 5 μg/mL with the running reagent 1, and sequentially injected to the experimental channels with His capture chips at a flow rate of […] for about 400 RU. The capture of the ligand was not required for the reference channel. The human Nectin-4 protein was diluted to 50, 25, 12.5, 6.25, 3.125, 1.563, 0.781, 0.391, and 0 nM with the corresponding running reagent, and then the diluted human Nectin-4 protein was injected into the experimental channels and the reference channel at a flow rate of 30 μL/min. The association and dissociation time were 120 sec and 300 sec, respectively. The Biocore 8K analysis software was used to calculate KD values for each antibody. The reference channel was used for background subtraction.

FcRn [9] = molecular target: T1, FcRn; experiment: BIAcore affinity for Fc receptor FcRn; assay type: binding; conditions: pH 6.0
Description: (§5) Human FcγR I (CD64), FcγR IIa (CD32a (H167)), FcγR IIb (CD32b), and FcγR IIIa (CD16a (V176)) proteins were diluted to 0.25 μg/mL with running reagent 1 (10 mM N-(2-hydroxyethyl)piperazine-N-2 sulfonic acid, 150 mM sodium chloride, 3 mM ethylene diamine tetraacetic acid, 0.005% Tween-20, with pH adjusted to 7.4), and FcRn protein was diluted to 0.25 μg/mL with running reagent 2 (2 mM sodium dihydrogen phosphate, 10 mM disodium hydrogen phosphate, 137 mM sodium chloride, 2.7 mM potassium chloride, 0.05% tween-20, with pH adjusted to 6.0) and all the diluted proteins were sequentially injected to the experimental channels with His capture chips (FC2) at a flow rate of […] for about 40 RU. The capture of the ligands was not required for the reference channel (FC1). Samples to be detected were diluted with corresponding running reagents, and then were injected into the experimental channels and the reference channel at a flow rate of 30 μL/min. Association and dissociation was monitored for certain time periods. The Biocore 8K analysis software was used to calculate KD values for each antibody. The reference channel (FC1) was used for background subtraction.

human FcγR I (CD64) [10] = molecular target: T2, human FcγR I (CD64); experiment: BIAcore affinity for Fc receptor FcγRI; assay type: binding; conditions: pH 7.4
Description: as §5

[11] = molecular target: T4, human FcγR IIa (human CD32a (H167)) (Homo sapiens, UniProt P12318); experiment: BIAcore affinity for Fc receptor FcγRIIa; assay type: binding; conditions: pH 7.4
T4 sequence (P12318 36-218 limits assumed): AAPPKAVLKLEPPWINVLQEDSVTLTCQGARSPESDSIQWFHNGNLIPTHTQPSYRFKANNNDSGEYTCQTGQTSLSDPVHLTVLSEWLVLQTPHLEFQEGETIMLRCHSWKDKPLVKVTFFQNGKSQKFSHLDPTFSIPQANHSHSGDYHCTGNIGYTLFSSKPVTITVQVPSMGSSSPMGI
Description: as §5

[12] = molecular target: T5, human FcγR IIb (human CD32b) (Homo sapiens, UniProt P31994); experiment: BIAcore affinity for Fc receptor FcγRIIb; assay type: binding; conditions: pH 7.4
T5 sequence (P31994 43-310): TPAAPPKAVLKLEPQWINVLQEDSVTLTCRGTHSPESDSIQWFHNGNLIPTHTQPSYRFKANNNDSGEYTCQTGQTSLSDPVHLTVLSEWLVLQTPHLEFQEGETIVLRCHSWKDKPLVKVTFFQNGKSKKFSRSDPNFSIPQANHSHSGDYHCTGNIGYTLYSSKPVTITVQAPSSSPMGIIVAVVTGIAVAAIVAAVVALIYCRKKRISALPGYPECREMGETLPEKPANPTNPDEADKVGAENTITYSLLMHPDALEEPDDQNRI
Description: as §5

PC-3-Nectin4(2-4) cells = experiment: Internalization activity, flow cytometry; assay type: cell-based
Description: Experiment method was as follows: the target cells at the logarithmic stage of growth were harvested by centrifugation, adjusted to a density of 5×10^5 cells/mL in complete medium (F-12K medium containing 10% FBS and 250 μg/ml G418). 1 mL of the cell suspension obtained was pipetted into EP tubes, i.e., 5×10^5 cells in each, which were then centrifuged. The supernatant was discarded and the cells were washed twice with PBS. […] (as the control group) and 37° C. (as the experiment groups) respectively. After incubation for 2 h, a fluorescently labeled secondary antibody, goat anti human IgG Fc-FITC (purchased from Sigma) was added and incubated for 1 h at 4° C. After the incubation, the fluorescence intensity was measured with a flow cytometer, and the internalization efficiency of each of the samples was calculated by the formula as follows: percent internalization at the time point tx=(1−the fluorescence intensity of the sample at 37° C./the fluorescence intensity of the sample at 4° C.)×100% (tx is the incubation time period x of the sample with the cells).

[13] = cited from earlier work

## PADCEV (Enfortumab Vedotin, purchased from Seattle Genetics) (antibody)
[1]
  Fluorescence intensity at 37° C. (Average), surface antibody left after internalization: 33100
  Fluorescence intensity at 37° C. (Median), surface antibody left after internalization: 25000
FcRn [2]
  Kd: 513 nM
Human FcγR I (CD64) [3]
  Kd: 12.3 nM
[4]
  Kd: 2770 nM
[5]
  Kd: 16300 nM
[6]
  fluorescence intensity at 4° C. (Average): 84000
  fluorescence intensity at 4° C. (Median): 78900
[7]
  Kd: 4.87 nM

## PADCEV
MDA-MB-468 cells; 3 mg/kg IV at D0
  TV(D0): 133.1 mm^3
  T/C (%) (D21): 63%
  TGI % (D21): 37%
  TV(D21): 516.4 mm^3
  PR (D21), partial tumor regression: 0
MDA-MB-468 cells; 10 mg/kg IV at D0
  TV(D0): 139.5 mm^3
  T/C (%) (D21): 28%
  TGI % (D21): 72%
  TV(D21): 309.5 mm^3
  PR (D21), partial tumor regression: 0
NCI-H322 cells; 3 mg/kg IV at D0, D0 baseline
  TV(D0): 125.1 mm^3
NCI-H322 cells; 3 mg/kg IV at D0, D21
  T/C (%) (D21): 36%
  TGI % (D21): 64%
  TV(D21): 325.9 mm^3
NCI-H322 cells; 3 mg/kg IV at D0, D21, 8 animals per group
  PR (D21), partial tumor regression: 0
NCI-H322 cells; 10 mg/kg IV at D0, D0 baseline
  TV(D0): 124.1 mm^3
NCI-H322 cells; 10 mg/kg IV at D0, D21
  T/C (%) (D21): −23%
  TGI % (D21): 123%
  TV(D21): 95.9 mm^3
NCI-H322 cells; 10 mg/kg IV at D0, D21, 8 animals per group
  PR (D21), partial tumor regression: 7
T24/nectin-4 cells; 3 mg/kg IV at D0
  Average tumor weight (g) (D22): 0.23 g
  TGI (%) (D22): 90.7%
  Average weight (g) at the beginning: 22.0 g
  Average weight (g) at the end: 23.0 g
T24/nectin-4 cells; 10 mg/kg IV at D0
  Average tumor weight (g) (D22): 0.09 g
  TGI (%) (D22): 96.3%
  Average weight (g) at the beginning: 22.0 g
  Average weight (g) at the end: 23.3 g
[8]
  Kd: 4.87 nM
  ka: 1.05e+06 M⁻¹ s⁻¹
  kd: 0.00512 s⁻¹
FcRn [9]
  Kd: 513 nM
Human FcγR I (CD64) [10]
  Kd: 12.3 nM
[11]
  Kd: 2770 nM
[12]
  Kd: 16300 nM
PC-3-Nectin4(2-4) cells; 2 h at 4° C. (control group), average
  Average fluorescence intensity 4° C.: 83966
PC-3-Nectin4(2-4) cells; 2 h at 4° C. (control group), median
  Median fluorescence intensity 4° C.: 78925
PC-3-Nectin4(2-4) cells; 2 h at 37° C., average
  Average fluorescence intensity 37° C.: 33129
PC-3-Nectin4(2-4) cells; 2 h at 37° C., median
  Median fluorescence intensity 37° C.: 25038
[13]; clinical studies
  adverse reactions accompanying treatment: fever, skin itching, peripheral neuropathy, dry eyes, neutrocytopenia
[13]; patients receiving chemotherapy and PD-1/PD-L1 inhibitor regimens
  medium overall survival: 12.9 months
[13]; versus patients receiving chemotherapy in the control group
  overall survival longer than chemotherapy control group: 3.9 months
